Reference: paper PMC8512853, “Synthesis, Bioactivity, Pharmacokinetic and Biomimetic Properties of Multi-Substituted Coumarin Derivatives” (Molecules, 2021)

What was measured:
[1] = ABTS radical scavenging assay; settings: 6 min
Procedure: The ABTS radical cation scavenging assay is a decolorization assay frequently used as an antioxidant activity estimation protocol. […] The absorbance is measured at 734 nm and the antioxidant capacity is compared to a standard antioxidant solution, such as ascorbic acid.
For the evaluation of antioxidant activity, the scavenging capacities of all samples were measured via the ABTS assay, as previously described by Kontogiorgis et al. with some modifications. Briefly, an ethanolic standard ABTS solution (7 mM) was prepared by the addition of ABTS salt and potassium persulfate. […] Each sample was diluted in DMSO and tested in triplicate. The tested mixture contained 10–20 µL of sample and 990–980 µL of the ABTS solution, for a total volume of 1 ml. Blank samples contained equal amounts of DMSO instead of the coumarin analogues, and ascorbic acid was used as a reference sample for the final evaluation of the ABTS scavenging capacity. All mixtures were stored at room temperature to allow decolorization and measured after 6 min. The percentage reduction of the ABTS radical was evaluated according to the following Equation (3):(3) % Reduction=Control OD (mean)−Sample OD (mean)/Control OD (mean)×100

HaCaT cells = experiment: DCF-DA assay (intracellular ROS after H2O2); format: cell-based, human; settings: Homo sapiens, 100 μΜ, H2O2 treatment, 24 h, read-out: DCFDA Assay, % (100 μΜ)
Text: In the setting of evaluating bioactive compounds in terms of antioxidant capacity in various cell lines, DCF-DA is the most widely used assay for the detection of intracellular H2O2 and oxidative stress. DCF-DA is cell-permeable and is hydrolyzed intracellularly to the DCFH carboxylate anion, which is retained in the cell.
DCFDA is a fluorescent dye that measures the activity of hydroxyl radicals, peroxyl radicals, and other reactive oxygen species (ROS) within the cell. The DCFDA analysis protocol is based on the diffusion of DCFDA into the cell. It is then deacetylated from cellular esterases to a non-fluorescent compound, which is later oxidized by ROS to 2’,7’ -dichlorofluoroscein (DCF). The produced compound (DCF) is fluorescent and is detected by fluorescence spectroscopy at 485/535 nm (excitation/emission).
For the experimental procedure a standard solution of DCF-DA (20mM) in DMSO was prepared which was stored in the dark (−20 °C) until use. In a 96-well plate, cells were cultured to a density of 3 × 10^4 cells/well.
The cells remained in the incubator (37 °C, 5% CO2) for 24 h, after which an appropriate amount of H2O2 (2 mM) was added and the dish was returned for incubation for the next 2 h. This was followed by the addition of the test substances (100μM) and incubation for 24 h. At the end of the treatment time, all wells were washed with PBS, and DCF-DA solution (working concentration: 10 μM) (in 200 μL of nutrient) was added and incubated for 40 min.
After incubation, the medium with the DCF-DA was removed and replaced with FBS-free DMEM. The measurement of the […] was made immediately after that in a plate reader at 495/530 nm (excitation/emission).
All samples were tested in triplicates, against a control (without effects), blank (without cells), and positive control (standard 100 μM Ascorbic acid solution was used).
The percentage of antioxidant capacity (%) was calculated according to the following Equation (6) evaluating the presence of ROS [42]:(6) % AI=( OD Sample 530 nm−Blank)−(OD Control 530 nm−Blank)/(OD Control 530 nm−Blank) × 100

A375 cells = experiment: MTT cytotoxicity assay, A375; format: cell-based, human; settings: Homo sapiens, A-375, 24 h, A375, 100 μΜ, read-out: Cell Toxicity A375 % (100 μΜ)
Procedure: (§1) Furthermore, the coumarin compounds synthesized in this study were also evaluated for their cytotoxicity against A549 (adenocarcinomic human alveolar basal epithelial cells) and A375 (human melanoma) cell lines.
(§2) This protocol was used for the evaluation of cell viability and all the cell lines. It must be noted that this assay describes the count of cells that remain alive after the treatment. For the experimental procedure a standard solution of MTT 1mg/mL in PBS was prepared which after filtration ([…] filter (Millipore, Carrigtwohill, Ireland)) was stored in the dark (4–8 °C) until use. In a 96-well plate, HaCaT, A549 and A375 cells were seeded in a number of 30 × 10^4 cells/well for each evaluation series respectively. The cells were incubated (37 °C, 5% CO2) for 24 h, followed by the addition of the tested analogues (100 μM, diluted in DMEM) and another 24-h incubation. Next, appropriate amount of MTT was added in the tested wells and the plate returned to the incubator for the next 4 h for the formation of the formazan crystals. The formazan crystals were then redissolved by adding DMSO (100 μL) and stirring lightly for 40 min, after which the absorbance was measured in a plate reader at 540 nm with a reference absorbance of 720 nm.
(§3) All samples were tested in triplicate, against a control (only cells), blank (no cells), and positive control (100 μM standard silibinin solution was used as a “cell-killing” standard).

[2] = MTT cell viability assay, HaCaT; format: cell-based, human; settings: human, HaCaT cells, 100 μΜ, 24 h
Text: The MTT assay (3- [4,5-dimethylthiazol-2-yl] -2,5 diphenyl tetrazole) is based on the conversion of MTT to formazan crystals by living cells, which determines mitochondrial activity. Since for most cell populations total mitochondrial activity is related to the number of viable cells, this assay is widely used to measure the in vitro cytotoxic effects of drugs on various cell lines or primary cells. The principle of the MTT assay is that for most viable cells the mitochondrial activity is stable, and therefore, an increase or decrease in the number of viable cells is linearly related to mitochondrial activity. The mitochondrial activity of the cells is reflected by the conversion of the MTT tetrazole salt to formazan crystals (bright purple), which can be solubilized (in this protocol with DMSO) for homogeneous measurement. Thus, any increase or decrease in the number of viable cells can be detected by measuring the formazan concentration reflected in the optical density (OD) measurement at 540 nm with a reference absorption of 720 nm.
All the compounds were tested for their cytotoxic activity against blank and control samples in the human epidermal keratinocyte line (HaCaT), at the concentration of 100 μΜ, and the results are presented in Table 4.
as §2, §3

A549 cells = experiment: MTT cytotoxicity assay, A549; format: cell-based, human; settings: Homo sapiens; A549, 100 μΜ, 24 h; read-out: Cell Toxicity A549 % (100 μΜ)
Procedure: as §1, §2, §3

[3] = Hydroxyl (HO•) free radical scavenging assay (competition with DMSO)
Text: The hydroxyl (HO^•) free radical is considered as the most toxic and reactive radical among the ROS, leading to cellular or protein damage, membrane destruction, and even to cellular death when encountered in excess concentration. In this context, the evaluation of the hydroxyl radical scavenging activity of the coumarin analogues was essential. Hydroxyl radicals are mainly produced by the Haber–Weiss reaction in the presence of iron or copper ions. In this protocol, iron-EDTA solution, which catalyzes the autooxidation of ascorbic acid, was used as the hydroxyl radical generation system. In general, the hydroxyl radicals formed oxidize the DMSO to form formaldehyde. The reaction involves the initial interaction of DMSO with the hydroxyl radicals to give methyl radicals, with the final product being formaldehyde, which is determined by Nash method. The intensity of the yellow solution formed was measured at 412 nm against a reagent blank.
For the evaluation of hydroxyl radical scavenging ability, the protocol described by Kontogiorgis et al. was used. In short, each sample was tested in quadruplicate (A, B, C, D). For A and B, 10 μL of coumarin analogs diluted in DMSO (100 mM) were added; for C and D were the respective blanks. Standards (containing DMSO solution) and blanks were all prepared in a similar manner; to the latter an equal amount (10 µL) of solvent was added instead of the tested analogues. According to the protocol described by Klein et al., standard solutions of EDTA, FeCl3, ascorbic acid, and buffer solution (pH 7.4) were also added to each of the tested mixtures. All mixtures were incubated at 37 °C for 30 min, and then 1 mL of Nash solution and […] of CCl3COOH solution were added. After a 10min incubation at 60 °C to allow the formation of the yellow mixture, the absorbance was measured at […].
The results were calculated as performance percentages in relation to the respective standards and blanks according to the following Equation (4):(4) % Scavenging ability= Mean OD(A+B)−Mean OD(C+D)/Mean OD(A+B)

[4] = Inhibition of AAPH induced linoleic acid oxidation (lipid peroxidation); settings: 100 μΜ
Text: AAPH induced linoleic acid oxidation has been developed as a quick and reliable antioxidant activity assay. It is based on the inhibition of linoleic acid oxidation, initiated by the thermal free radical producer 2,2′-azobis(2-amidinopropane) dihydrochloride (AAPH), providing a measure of how efficiently antioxidants protect against lipid oxidation in vitro. Oxidation of exogenous linoleic acid by AAPH is followed by UV spectrophotometry at 234 nm in a highly diluted sample [38].
For the reference sample in a UV cuvette, 10 μL of the test sample (100 μM diluted in DMSO), 10 μL linoleic acid (LA) (16 mM), and buffer solution (pH 7.4) were added to a final volume of 1ml. For the measurement sample, in a UV cuvette, 10 μL of test sample, 50 μL AAPH (40 mM), 10 μL LA, and buffer solution were added to a final volume of 1 mL. Standard and blank samples were prepared in the same way using DMSO (solvent) instead of the tested coumarin analogues. The absorbance was measured after 2 min at 37 °C at 234 nm. Results were obtained via the following Equation (5):(5) %Inhibition=(Standard−Blank)−(Reference Sample−Measurement Sample)/(Standard−Blank) × 100

| Compound | ABTS^•+ % (100 μΜ) [1] [%] | inhibition at 100 µM (HaCaT cells) [%] | cytotoxicity at 100 µM (A375 cells) [%] | viability at 24 h, 100 μM [2] [%] | cytotoxicity at 100 µM (A549 cells) [%] | HO^• % (100 μΜ) scavenging [3] [%] | AAPH % inhibition (100 μΜ) [4] [%] |
| --- | --- | --- | --- | --- | --- | --- | --- |
| O=C1O[C@H]([C@@H](O)CO)C(O)=C1O [Ascorbic acid, reference compound] | 99.1 | 87 |  |  |  |  |  |
| COc1cc(C2Oc3cc([C@H]4Oc5cc(O)cc(O)c5C(=O)[C@@H]4O)ccc3OC2CO)ccc1O (some centres unmarked) [Silibinin, reference compound] |  |  | 84.4 | 35.7 | 78.3 |  |  |
| Cc1c(C)c2c(c(C)c1O)CCC(C)(C(=O)O)O2 (centres unmarked) [Trolox, reference compound] | 92.0 |  |  |  |  | 85.0 | 92 |
